Experimental data published in patent US20110097365A1, “S-TRIAZINE DERIVATIVES CONTAINING AT LEAST TWO PARTICULAR SILANE AMINOBENZOATE OR SILANE AMINOBENZAMIDE GROUPS; PHOTOPROTECTIVE COSMETIC COMPOSITIONS CONTAINING THESE DERIVATIVES; USES OF THE SAID S-TRIAZINE DERIVATIVES” (L'OREAL, priority 2007, published 2011).
Several values for one entry are separate records, joined by “and”; a condition that tells them apart may be missing. Equal entries are not always repeated.

Legend:
Type in all cases: physicochemical
[1] = UV absorption of the derivatives in DMSO/ethanol; details: for E1% / εmax: at the λmax of the same block
[2] = Granulometric measurements by SLS (Mastersizer)
Method: (§1) Two micronizations of these compounds 1 and 2 are performed by milling in oily medium (oil: phenylethyl benzoate—X-Tend 226 from ISP) by means of a mill without addition of dispersant, using a Dispermat ball mill.
(§2) • Dispermat AE 06-C1 disperser-mill (Brant Industrie) • Dispersion: slurries containing 17% R056336A and 49% F17845 (difference in oil uptake) ˜3000 rpm ˜15 minutes • Milling under rapid conditions (30 minutes at 4500 rpm), not optimized (water-cooling circuit not operational) with 0.7-1.2 mm […] balls.
The granulometric results obtained by SLS using a Mastersizer granulometer reveal a very marked difference in particle size between compound 1 and compound 2, with particle sizes d(0.5), respectively, of 0.118 μm as opposed to 851 μm.

[3] = Macroscopic observation of 1% oily dispersions in phenylethyl benzoate; details: 1% by weight in phenylethyl benzoate (X-Tend 226), after about one week
Method: as §1, §2
Two oily dispersions in phenylethyl benzoate (X-Tend 226) comprising 1% by weight, respectively, of compound 1A or 2A are then prepared.

| Compound | λmax [1] | E1% [1] | εmax [1] | particle size d(0.5) ([2]; after milling in phenylethyl benzoate without dispersant, SLS Mastersizer) | dispersibility in the oil phenylethyl benzoate ([2]; overall conclusion, compared with compound 2) | macroscopic stability of dispersion [3] |
| --- | --- | --- | --- | --- | --- | --- |
| C[Si](C)(C)COC(=O)c1ccc(Nc2nc(Nc3ccc(C(=O)OC[Si](C)(C)C)cc3)nc(Nc3ccc(C(=O)OC[Si](C)(C)C)cc3)n2)cc1 [Example 1, 2,4,6-tris(methyltrimethyl-silyl 4′-aminobenzoate)-s-triazine] | 314 nm | 1700 | 126 660 | 0.118 μm | markedly superior dispersibility | – |
| C[Si](C)(C)COC(=O)c1ccc(Nc2nc(Nc3ccc(C(=O)OC[Si](C)(C)C)c(O)c3)nc(Nc3ccc(C(=O)OC[Si](C)(C)C)c(O)c3)n2)cc1O [Example 3, 2,4,6-tris(methyltrimethyl-silyl 4′-aminosalicylate)-s-triazine] | 326 nm and 300 nm | 1456 and 938 | 107 610 and 74 400 | – | – | – |
| C[Si](C)(C)CNC(=O)c1ccc(Nc2nc(Nc3ccc(C(=O)NC[Si](C)(C)C)cc3)nc(Nc3ccc(C(=O)NC[Si](C)(C)C)cc3)n2)cc1 [Example 7, 2,4,6-tris(methyltrimethyl-silyl 4′-aminobenzamide)-s-triazine] | 303 nm | 1123 | 83 330 | – | – | – |
| COc1ccc(-c2nc(Nc3ccc(C(=O)OC[Si](C)(C)C)cc3)nc(Nc3ccc(C(=O)OC[Si](C)(C)C)cc3)n2)cc1 [Example 4, 2,4-bis(methyltrimethylsilyl 4′-aminobenzoate)-6-(para-methoxyphenyl)-s-triazine] | 303 nm | 1313 | 82 700 | – | – | – |
| CC12CCC(/C(=C\c3ccc(Nc4nc(Nc5ccc(C(=O)OC[Si](C)(C)C)cc5)nc(Nc5ccc(C(=O)OC[Si](C)(C)C)cc5)n4)cc3)C1=O)C2(C)C (stereo not shown) [Example 6, 2,4-bis(methyltrimethylsilyl 4′-aminobenzoate)-6-(4″-aminobenzylidenecamphor)-s-triazine] | 313 nm and 345 nm | – | – | – | – | – |
| CCCCOC(=O)c1ccc(Nc2nc(Nc3ccc(C(=O)OC[Si](C)(C)C)cc3)nc(Nc3ccc(C(=O)OC[Si](C)(C)C)cc3)n2)cc1 [Example 2, 2,4-bis(methyltrimethylsilyl 4′-aminobenzoate)-6-(butyl 4″-aminobenzoate)-s-triazine] | 313 nm | 1660 | 104 560 | – | – | – |
| CC(C)(C)CC(C)(C)c1cc(Cc2cc(C(C)(C)CC(C)(C)C)cc(-n3nc4ccccc4n3)c2O)c(O)c(-n2nc3ccccc3n2)c1 [Compound 2, methylenebis(benzo-triazolyl)tetramethylbutylphenol] | – | – | – | – | – | totally insoluble |
| COc1ccc(-c2nc(Nc3ccc(C(=O)OC[Si](C)(C)C)c(O)c3)nc(Nc3ccc(C(=O)OC[Si](C)(C)C)c(O)c3)n2)cc1 [Example 5, 2,4-bis(methyltrimethylsilyl 4′-aminosalicylate)-6-(para-methoxyphenyl)-s-triazine] | 329 nm and 316 nm and 298 nm | 927 and 1066 and 1030 | 61 370 and 70 570 and 68 190 | – | – | – |
